{"source": "patent US9757316B2", "about": "“Zinc-lysine complex” (Colgate-Palmolive Company, priority 2012, dated 2017)", "key": {"[1]": {"biological_target": "Bovine Serum Albumin (BSA) (Bos taurus, UniProt P02769)", "sequence (P02769 25-607)": "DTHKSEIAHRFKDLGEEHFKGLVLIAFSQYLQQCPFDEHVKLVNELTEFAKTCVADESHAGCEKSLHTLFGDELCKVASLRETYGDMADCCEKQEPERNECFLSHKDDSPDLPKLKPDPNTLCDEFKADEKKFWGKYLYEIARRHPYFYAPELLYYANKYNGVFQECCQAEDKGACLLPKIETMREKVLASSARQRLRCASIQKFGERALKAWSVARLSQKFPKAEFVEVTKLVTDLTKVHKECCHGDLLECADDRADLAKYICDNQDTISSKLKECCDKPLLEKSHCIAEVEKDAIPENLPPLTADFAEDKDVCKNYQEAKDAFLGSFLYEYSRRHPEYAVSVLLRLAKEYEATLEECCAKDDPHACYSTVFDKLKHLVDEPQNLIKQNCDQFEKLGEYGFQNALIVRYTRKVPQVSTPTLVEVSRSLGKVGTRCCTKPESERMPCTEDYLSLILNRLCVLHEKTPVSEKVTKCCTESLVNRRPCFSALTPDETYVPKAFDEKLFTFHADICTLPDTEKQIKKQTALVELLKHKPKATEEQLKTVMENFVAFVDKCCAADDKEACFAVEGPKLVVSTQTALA", "experiment": "Flocculation: interaction of ZLC with BSA solutions (turbidity, pH, observation)", "type": "physicochemical", "settings": "for Turbidity (NTU) / observation / pH: ZLC about 15 mg/ml, 5 hours at 37° C.", "description": "Turbidity and pH of solutions are measured 5 hours after the mixtures were placed in a 37° C. oven, and the results are shown in Table 3."}, "[2]": {"experiment": "Hydrolysis reaction: pH and turbidity of diluted ZLC solutions before and after aging", "type": "physicochemical", "settings": "for pH after aging / turbidity after aging (NTU): aged in 37° C. oven over 5 hours; for initial pH / initial turbidity (NTU): before aging; for initial turbidity (NTU): nephelometer", "description": "Hydrolysis reaction: A 185 mg/ml ZLC solution is prepared and diluted several-fold and aged in a 37° C. oven over 5 hours for turbidity studies. […] Turbidity of the solutions is measured using a nephelometer, results being given in nephelometric turbidity units (NTU).\nThe precipitates formed in the 8×, 16× and 32× diluted solutions are collected by centrifugation and identified as crystalline ZnO by PXRD. From the supernatant, a single crystal is grown and shown by X-ray diffraction to be Lysine Monohydrochloride Dihydrate (LysineHCl·2H2O).\nThe mechanism of the ZLC hydrolysis reaction can be expressed as [Zn(Lysine)2Cl]^+Cl^−·2H2O+H2O→ZnO+Lysine·HCl·2H2O"}, "[3]": {"settings": "sample 1: DI water, 0% BSA, initial pH 6.4"}, "[4]": {"settings": "sample 2: 1% BSA, initial pH 7.2"}, "[5]": {"settings": "sample 3: 1% BSA, pH adjusted to 5.1"}}}
{"compound": "NCCCCC(N)C(=O)O.NCCCCC(N)C(=O)O.O.O.[Cl-].[Cl-].[Zn+2]", "note": "(centres unmarked) [ZLC, [Zn(C6H14N2O2)2Cl]^+Cl^−]", "values": [{"measurement": "protein flocculation", "setting": "[1]; BSA as protein", "value": "ability to flocculate proteins"}, {"measurement": "Turbidity (NTU)", "setting": "[1]; [3]", "value": 357, "unit": "NTU"}, {"measurement": "observation", "setting": "[1]; [3]", "value": "slightly cloudy"}, {"measurement": "pH", "setting": "[1]; [3]", "value": 8}, {"measurement": "Turbidity (NTU)", "setting": "[1]; [4]", "value": ">1000", "unit": "NTU"}, {"measurement": "observation", "setting": "[1]; [4]", "value": "very cloudy"}, {"measurement": "pH", "setting": "[1]; [4]", "value": 8.2}, {"measurement": "Turbidity (NTU)", "setting": "[1]; [5]", "value": ">1000", "unit": "NTU"}, {"measurement": "observation", "setting": "[1]; [5]", "value": "very cloudy"}, {"measurement": "pH", "setting": "[1]; [5]", "value": 8}, {"measurement": "pH after aging", "setting": "[2]; 5.78 mg/ml ZLC solution", "value": 8}, {"measurement": "turbidity after aging (NTU)", "setting": "[2]; 5.78 mg/ml ZLC solution", "value": ">1000", "unit": "NTU"}, {"measurement": "initial pH", "setting": "[2]; 5.78 mg/ml ZLC solution", "value": 8}, {"measurement": "initial turbidity (NTU)", "setting": "[2]; 5.78 mg/ml ZLC solution", "value": 40.1, "unit": "NTU"}, {"measurement": "pH after aging", "setting": "[2]; 11.56 mg/ml ZLC solution", "value": 7.8}, {"measurement": "turbidity after aging (NTU)", "setting": "[2]; 11.56 mg/ml ZLC solution", "value": ">1000", "unit": "NTU"}, {"measurement": "initial pH", "setting": "[2]; 11.56 mg/ml ZLC solution", "value": 7.8}, {"measurement": "initial turbidity (NTU)", "setting": "[2]; 11.56 mg/ml ZLC solution", "value": 14.8, "unit": "NTU"}, {"measurement": "pH after aging", "setting": "[2]; 23.125 mg/ml ZLC solution", "value": 7.7}, {"measurement": "turbidity after aging (NTU)", "setting": "[2]; 23.125 mg/ml ZLC solution", "value": 247.4, "unit": "NTU"}, {"measurement": "initial pH", "setting": "[2]; 23.125 mg/ml ZLC solution", "value": 7.7}, {"measurement": "initial turbidity (NTU)", "setting": "[2]; 23.125 mg/ml ZLC solution", "value": 0.7, "unit": "NTU"}, {"measurement": "pH after aging", "setting": "[2]; 46.25 mg/ml ZLC solution", "value": 7.4}, {"measurement": "turbidity after aging (NTU)", "setting": "[2]; 46.25 mg/ml ZLC solution", "value": 2.8, "unit": "NTU"}, {"measurement": "initial pH", "setting": "[2]; 46.25 mg/ml ZLC solution", "value": 7.4}, {"measurement": "initial turbidity (NTU)", "setting": "[2]; 46.25 mg/ml ZLC solution", "value": 1.5, "unit": "NTU"}, {"measurement": "pH after aging", "setting": "[2]; 92.5 mg/ml ZLC solution", "value": 7}, {"measurement": "turbidity after aging (NTU)", "setting": "[2]; 92.5 mg/ml ZLC solution", "value": 2.6, "unit": "NTU"}, {"measurement": "initial pH", "setting": "[2]; 92.5 mg/ml ZLC solution", "value": 7}, {"measurement": "initial turbidity (NTU)", "setting": "[2]; 92.5 mg/ml ZLC solution", "value": 2.8, "unit": "NTU"}, {"measurement": "pH after aging", "setting": "[2]; 185 mg/ml ZLC solution", "value": 6.8}, {"measurement": "turbidity after aging (NTU)", "setting": "[2]; 185 mg/ml ZLC solution", "value": 4.1, "unit": "NTU"}, {"measurement": "initial pH", "setting": "[2]; 185 mg/ml ZLC solution", "value": 6.8}, {"measurement": "initial turbidity (NTU)", "setting": "[2]; 185 mg/ml ZLC solution", "value": 4.7, "unit": "NTU"}, {"measurement": "stability of the complex upon dilution with water", "setting": "[2]; precipitates of 8×, 16× and 32× diluted solutions identified as crystalline ZnO by PXRD", "value": "disassociates upon dilution"}]}
